Reference: patent US20240108006A1, “PESTICIDALLY ACTIVE HETEROAROMATIC COMPOUNDS” (SYNGENTA CROP PROTECTION AG, priority 2021, published 2024)

What was measured:
Format in all cases: in vivo
Spodoptera littoralis = assay: Example B9: Spodoptera littoralis (Egyptian cotton leaf worm), cotton leaf discs, L1 larvae; conditions: foliar, 72 h, application rate of 200 ppm, 3 days after infestation, read-out: control in at least one of the three categories (mortality, anti-feedant effect, or growth inhibition)
Description: Example B9: Spodoptera littoralis (Egyptian Cotton Leaf Worm)
Cotton leaf discs were placed onto agar in 24-well microtiter plates and sprayed with aqueous test solutions prepared from 10,000 ppm DMSO stock solutions. After drying the leaf discs were infested with five L1 larvae. The samples were assessed for mortality, anti-feeding effect, and growth inhibition in comparison to untreated samples 3 days after infestation. Control of Spodoptera littoralis by a test sample is given when at least one of the categories mortality, anti-feedant effect, and growth inhibition is higher than the untreated sample.

Chilo suppressalis = assay: Example B1: Chilo suppressalis (striped rice stemborer), artificial diet, L2 larvae; conditions: 144 h, application rate of 200 ppm, 6 days after infestation, read-out: control in at least one of the three categories (mortality, anti-feedant effect, or growth inhibition)
Description: Example B1: Chilo suppressalis (Striped Rice Stemborer)
24-well microtiter plates with artificial diet were treated with aqueous test solutions prepared from 10,000 ppm DMSO stock solutions by pipetting. After drying, the plates were infested with L2 larvae (6-8 per well). The samples were assessed for mortality, anti-feeding effect, and growth inhibition in comparison to untreated samples 6 days after infestation. Control of Chilo suppressalis by a test sample is given when at least one of the categories mortality, anti-feedant effect, and growth inhibition is higher than the untreated sample.

Plutella xylostella = assay: Example B8: Plutella xylostella (diamond back moth), artificial diet 24-well, eggs; conditions: 192 h, application rate of 200 ppm, 8 days after infestation, read-out: effect in at least one of the two categories (mortality or growth inhibition)
Description: Example B8: Plutella xylostella (Diamond Back Moth)
24-well microtiter plates with artificial diet were treated with aqueous test solutions prepared from 10,000 ppm DMSO stock solutions by pipetting. After drying, Plutella eggs were pipetted through a plastic stencil onto a gel blotting paper and the plate was closed with it. The samples were assessed for mortality and growth inhibition in comparison to untreated samples 8 days after infestation.
The following compounds gave an effect of at least 80% in at least one of the two categories (mortality or growth inhibition) at an application rate of 200 ppm: […]

Structure (SMILES) | percent control (mortality, anti-feedant effect or growth inhibition) at 200 ppm (Spodoptera littoralis) | percent control (mortality, anti-feedant effect or growth inhibition) at 200 ppm (Chilo suppressalis) | percent effect (mortality or growth inhibition) at 200 ppm (Plutella xylostella)
C[C@H](NC(=O)Nc1ccc(Cl)c(Cl)c1Cl)c1ncnn1-c1ncccn1 [Example P95, 1-[(1S)-1-(2-pyrimidin-2-yl-1,2,4-triazol-3-yl)ethyl]-3-(2,3,4-trichlorophenyl)urea] | ≥ 80% | – | –
C[C@H](NC(=O)Nc1cc(Cl)c(OC(F)(F)C(F)Br)cc1Cl)c1ncnn1-c1ncccn1 (stereo partly drawn) [Example P197, 1-[4-(2-bromo-1,1,2-trifluoro-ethoxy)-2,5-dichloro-phenyl]-3-[(1S)-1-(2-pyrimidin-2-yl-1,2,4-triazol-3-yl)ethyl]urea] | ≥ 80% | – | –
C[C@H](NC(=O)N1CCc2cc(Br)ccc21)c1ncnn1-c1ncccn1 [Example P102, 5-bromo-N-[(1S)-1-(2-pyrimidin-2-yl-1,2,4-triazol-3-yl)ethyl]indoline-1-carboxamide] | ≥ 80% | – | –
C[C@H](NC(=O)Nc1c(Cl)cc(Cl)c(OC(F)(F)C(F)F)c1I)c1nccnc1-c1ccc(C#N)cn1 [Example P275, 1-[(1S)-1-[3-(5-cyano-2-pyridyl)pyrazin-2-yl]ethyl]-3-[4,6-dichloro-2-iodo-3-(1,1,2,2-tetrafluoroethoxy)phenyl]urea] | – | ≥ 80% | ≥ 80%
C[C@H](NC(=O)Nc1cc(OC(F)(F)C(F)F)c(Cl)cc1Cl)c1nccnc1-c1ccc(C#N)cn1 [Example P245, 1-[(1S)-1-[3-(5-cyano-2-pyridyl)pyrazin-2-yl]ethyl]-3-[2,4-dichloro-5-(1,1,2,2-tetrafluoroethoxy)phenyl]urea] | – | ≥ 80% | ≥ 80%
C[C@H](NC(=O)Nc1ccc(C(F)(F)F)c(Cl)c1)c1nccnc1-c1ncccn1 [Example P10, 1-[3-chloro-4-(trifluoromethyl)phenyl]-3-[(1S)-1-(3-pyrimidin-2-ylpyrazin-2-yl)ethyl]urea] | – | ≥ 80% | ≥ 80%
Cc1cc(Br)c(Cl)cc1NC(=O)N[C@@H](C)c1ncnn1-c1ncccn1 [Example P299, 1-(4-bromo-5-chloro-2-methyl-phenyl)-3-[(1S)-1-(2-pyrimidin-2-yl-1,2,4-triazol-3-yl)ethyl]urea] | – | ≥ 80% | ≥ 80%
CC(C)OC(=O)c1cc(NC(=O)N[C@@H](C)c2ncnn2-c2ncccn2)c(F)cc1Cl [Example P217, isopropyl 2-chloro-4-fluoro-5-[[(1S)-1-(2-pyrimidin-2-yl-1,2,4-triazol-3-yl)ethyl]carbamoylamino]benzoate] | – | ≥ 80% | ≥ 80%
CC(NC(=O)Nc1cnc(Br)cc1Br)c1nccnc1-n1nccn1 (stereo not drawn) [Example P262, 1-(4,6-dibromo-3-pyridyl)-3-[1-[3-(triazol-2-yl)pyrazin-2-yl]ethyl]urea] | ≥ 80% | – | –
C[C@H](NC(=O)Nc1cc(F)c(Cl)cc1I)c1ncnn1-c1ncccn1 [Example P376, 1-(4-chloro-5-fluoro-2-iodo-phenyl)-3-[(1S)-1-(2-pyrimidin-2-yl-1,2,4-triazol-3-yl)ethyl]urea] | – | ≥ 80% | ≥ 80%
COc1cc(OC)c(NC(=O)N[C@@H](C)c2ncnn2-c2ncccn2)cc1Cl [Example P387, 1-(5-chloro-2,4-dimethoxy-phenyl)-3-[(1S)-1-(2-pyrimidin-2-yl-1,2,4-triazol-3-yl)ethyl]urea] | ≥ 80% | – | –
CC(NC(=S)Nc1cc(C(F)(F)F)cc(C(F)(F)F)c1)c1ncnn1-c1ncccn1 (stereo not drawn) [Example P3, 1-[3,5-bis(trifluoromethyl)phenyl]-3-[1-(2-pyrimidin-2-yl-1,2,4-triazol-3-yl)ethyl]thiourea] | ≥ 80% | – | –
